Structures can show the parent of a compound that is named as a salt.
How the values were obtained:
Format in all cases: in vivo
mice [1] = test: observation of sedation/tranquillization and hypnotic state in the mice of the Rotarod test
From the text: (§1) In humans, this retention of coordination would avoid or reduce the disadvantages of loss of concentration and related side effects commonly associated with benzodiazepine drugs. The observation of this effect was made on groups of five mice subjected to a Rotarod test.
*2/5 mice in hypnotic state - not returned to rotarod.

[2] = diuretic activity at sedating dose; conditions: dose levels producing sedation (200 mg/Kg)
From the text: At a clinical dose level it can therefore be assumed that there would be no diuretic effect.

female mice = test: 7-day median lethal dose (LD50) in female mice
From the text: (§2) The compounds in which R4 is furyl are of particular interest. Their psychotropic action is as disclosed above, but in addition their toxicity tends to be low. […] The higher toxicity at lower temperatures was thought to be caused by […] induced by the compound under test.

[3] = 7-day median lethal dose (LD50) in female mice; conditions: mouse, in vivo, 7-day
From the text: as §2

mice [4] = test: Rotarod test (neuro-muscular coordination), groups of 5 mice, 2 minute test periods for 5 hours after dosage
From the text: as §1

## CN(C1=Nc2ccc(Cl)cc2C(c2ccccc2)=[N+]([O-])C1)C(O)c1ccco1 (stereo not shown) [SH60, 7-chloro-2-(N-methyl-N-1-hydroxyfurfurylamino)-5-phenyl-3H-1,4-benzodiazepine-4-oxide hydrochloride]
Mice [1]; 200 mg./kg., footnote to 180, 240 and 300 mins. after dosage
  mice in hypnotic state - not returned to rotarod: 2/5
Mice [1]; mice, 20 mg/Kg
  sedation/tranquillization: apparent sedation/tranquillization
Mice [1]; mice, 100 mg/Kg
  sedation/tranquillization: apparent sedation/tranquillization
Mice [1]; mice, 200 mg/Kg, after 30 minutes
  sedation: marked sedation
[2]
  diuretic activity: minimal diuretic activity
Female mice
  toxicity, indicated by the LD50, compared with conventional and commercially used benzodiazepine drugs: significantly lower than that of conventional and commercially used benzodiazepine drugs
[3]; at 23° C
  LD50 at 168 h: 900 mg/kg
[3]; at 30° C
  LD50 at 168 h: 1080 mg/kg
Mice [4]; 20 mg./kg., 0 mins. after dosage, 5 mice
  Total Number of Falls: 2
Mice [4]; 20 mg./kg., 15 mins. after dosage, 5 mice
  Total Number of Falls: 0
Mice [4]; 20 mg./kg., 30 mins. after dosage, 5 mice
  Total Number of Falls: 0
Mice [4]; 20 mg./kg., 45 mins. after dosage, 5 mice
  Total Number of Falls: 0
Mice [4]; 20 mg./kg., 60 mins. after dosage, 5 mice
  Total Number of Falls: 0
Mice [4]; 20 mg./kg., 90 mins. after dosage, 5 mice
  Total Number of Falls: 0
Mice [4]; 20 mg./kg., 120 mins. after dosage, 5 mice
  Total Number of Falls: 0
Mice [4]; 20 mg./kg., 180 mins. after dosage, 5 mice
  Total Number of Falls: 0
Mice [4]; 20 mg./kg., 240 mins. after dosage, 5 mice
  Total Number of Falls: 0
Mice [4]; 20 mg./kg., 300 mins. after dosage, 5 mice
  Total Number of Falls: 0
Mice [4]; 100 mg./kg., 0 mins. after dosage, 5 mice
  Total Number of Falls: 2
Mice [4]; 100 mg./kg., 15 mins. after dosage, 5 mice
  Total Number of Falls: 0
Mice [4]; 100 mg./kg., 30 mins. after dosage, 5 mice
  Total Number of Falls: 0
Mice [4]; 100 mg./kg., 45 mins. after dosage, 5 mice
  Total Number of Falls: 0
Mice [4]; 100 mg./kg., 60 mins. after dosage, 5 mice
  Total Number of Falls: 0
Mice [4]; 100 mg./kg., 90 mins. after dosage, 5 mice
  Total Number of Falls: 0
Mice [4]; 100 mg./kg., 120 mins. after dosage, 5 mice
  Total Number of Falls: 0
Mice [4]; 100 mg./kg., 180 mins. after dosage, 5 mice
  Total Number of Falls: 0
Mice [4]; 100 mg./kg., 240 mins. after dosage, 5 mice
  Total Number of Falls: 0
Mice [4]; 100 mg./kg., 300 mins. after dosage, 5 mice
  Total Number of Falls: 0
Mice [4]; 200 mg./kg., 0 mins. after dosage, 5 mice
  Total Number of Falls: 0
Mice [4]; 200 mg./kg., 15 mins. after dosage, 5 mice
  Total Number of Falls: 0
Mice [4]; 200 mg./kg., 30 mins. after dosage, 5 mice
  Total Number of Falls: 23
Mice [4]; 200 mg./kg., 45 mins. after dosage, 5 mice
  Total Number of Falls: 27
Mice [4]; 200 mg./kg., 60 mins. after dosage, 5 mice
  Total Number of Falls: 36
Mice [4]; 200 mg./kg., 90 mins. after dosage, 5 mice
  Total Number of Falls: 34
Mice [4]; 200 mg./kg., 120 mins. after dosage, 5 mice
  Total Number of Falls: 40
Mice [4]; 200 mg./kg., 180 mins. after dosage, 2/5 mice in hypnotic state - not returned to rotarod
  Total Number of Falls: ≥ 26
Mice [4]; 200 mg./kg., 240 mins. after dosage, 2/5 mice in hypnotic state - not returned to rotarod
  Total Number of Falls: ≥ 37
Mice [4]; 200 mg./kg., 300 mins. after dosage, 2/5 mice in hypnotic state - not returned to rotarod
  Total Number of Falls: ≥ 30
Mice [4]; mice, 20 mg/Kg
  effect on muscular coordination: no apparent effect on muscular coordination
Mice [4]; mice, 100 mg/Kg
  effect on muscular coordination: no apparent effect on muscular coordination
Mice [4]; mice, 200 mg/Kg
  difficulty in maintaining balance on the rotating rod: all animals showed difficulty in maintaining balance on the rotating rod
Mice [4]; mice, dose levels producing tranquilizing and sedative effects
  neuro-muscular coordination: normal neuro-muscular coordination

## CN(C)CCCN1c2ccccc2Sc2ccc(Cl)cc21 [Chlorpromazine, reference compound]
Mice [4]; 15 mg./kg., 0 mins. after dosage, 5 mice
  Total Number of Falls: 0
Mice [4]; 15 mg./kg., 15 mins. after dosage, 5 mice
  Total Number of Falls: 1
Mice [4]; 15 mg./kg., 30 mins. after dosage, 5 mice
  Total Number of Falls: 0
Mice [4]; 15 mg./kg., 45 mins. after dosage, 5 mice
  Total Number of Falls: 5
Mice [4]; 15 mg./kg., 60 mins. after dosage, 5 mice
  Total Number of Falls: 13
Mice [4]; 15 mg./kg., 90 mins. after dosage, 5 mice
  Total Number of Falls: 17
Mice [4]; 15 mg./kg., 120 mins. after dosage, 5 mice
  Total Number of Falls: 14
Mice [4]; 15 mg./kg., 180 mins. after dosage, 5 mice
  Total Number of Falls: 9
Mice [4]; 15 mg./kg., 240 mins. after dosage, 5 mice
  Total Number of Falls: 13
Mice [4]; 15 mg./kg., 300 mins. after dosage, 5 mice
  Total Number of Falls: 9

From US4060608A, “Substituted hydroxymethyl benzodiazepines” (DDSA Pharmaceuticals, priority 1975, dated 1977)
